The values that follow come from patent publication US9932309B2, “2-oxo-3,4-dihydropyridine-5-carboxylates and their use” (UNIVERSITE DE LILLE 2 DROIT ET SANTE, priority 2014, dated 2018).

In one assay the target is T1, mTGR5 (Mus musculus, UniProt Q80SS6).
T1 construct: expressed in transfected cells; host or cells: HEK293 cells, transiently co-transfected with the pCRE TA-Luciferase reporter
T1 sequence (Q80SS6 1-329): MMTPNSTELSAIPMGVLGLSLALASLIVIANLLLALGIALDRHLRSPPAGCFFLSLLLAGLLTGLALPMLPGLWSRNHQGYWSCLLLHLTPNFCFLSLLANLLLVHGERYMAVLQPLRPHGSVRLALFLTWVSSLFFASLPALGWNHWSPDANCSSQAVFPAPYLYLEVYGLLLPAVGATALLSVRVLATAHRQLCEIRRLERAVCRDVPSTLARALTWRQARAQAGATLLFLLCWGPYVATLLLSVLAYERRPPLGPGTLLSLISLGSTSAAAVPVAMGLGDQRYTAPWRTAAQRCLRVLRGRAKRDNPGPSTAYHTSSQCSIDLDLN
The assay can be described thus: TGR5/CRE Luciferase Assay (mTGR5). In kind it is cell-based. The conditions noted are these: for EC50: HEK 293 cells co-transfected with pCMV AC6-TGR5m and pCRE TA-Luciferase, overnight incubation; for mTGR5 % trans: percentage of the 10 μM LCA value, HEK 293 cells transfected with mTGR5. As for the experimental part:
(§1) TGR5/CRE Luciferase Assay
(§2) In the following Tables TGR5 activation by compounds of the invention and subsequent increase in intracellular cAMP were evaluated using a luciferase reporter gene assay. Human embryonic kidney (HEK) 293 cells were transiently co-transfected with pCMV tag4b-TGR5 h (to follow hTGR5 activation) or pCMV AC6-TGR5m (to follow mTGR5 activation) expression plasmids and the pCRE TA-Luciferase reporter plasmid using the JET PEI reagent (Polyplus transfection). Transfected cells were seeded in 96-well plates and incubated overnight with the test compounds at increasing concentrations tested in duplicate. Lithocolic acid (LCA) at 10 μM was used as a positive reference compound. The cAMP-dependent luciferase expression was followed using the BrightGlo reagent according to the manufacturer (Promega) instructions. Luminescence was read with a Mithras plate reader (Berthold) or a Victor3™ V1420 (Perkin Elmer). […] Concentration-response curves were fitted by a nonlinear regression analysis to a 4 parameter logistic equation

The target in the next assay is T2, hTGR5 (Homo sapiens, UniProt Q8TDU6).
T2 construct: expressed in transfected cells; host or cells: HEK293 cells, transiently co-transfected with the pCRE TA-Luciferase reporter
T2 sequence (Q8TDU6 1-330): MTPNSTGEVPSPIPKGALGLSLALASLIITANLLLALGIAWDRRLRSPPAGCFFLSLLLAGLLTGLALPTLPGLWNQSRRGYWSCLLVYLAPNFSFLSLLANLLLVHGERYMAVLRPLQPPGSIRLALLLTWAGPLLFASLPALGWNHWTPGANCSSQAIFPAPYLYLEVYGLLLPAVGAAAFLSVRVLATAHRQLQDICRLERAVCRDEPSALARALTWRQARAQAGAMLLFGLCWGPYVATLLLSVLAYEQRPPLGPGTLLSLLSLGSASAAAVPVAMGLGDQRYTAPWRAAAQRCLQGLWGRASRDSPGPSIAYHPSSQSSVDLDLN
The assay can be described thus: TGR5/CRE Luciferase Assay (hTGR5). In kind it is cell-based. The conditions noted are these: for EC50: HEK 293 cells co-transfected with pCMV tag4b-TGR5h and pCRE TA-Luciferase, overnight incubation; for hTGR5 % trans: percentage of the 10 μM LCA value, HEK 293 cells transfected with hTGR5. The protocol: as §1, §2

A word on the EC50: it is the concentration giving half of the maximal effect. Regarding `COCCOc1ccc(COC(=O)C2=C(C)N(C[C@H]3CCCO3)C(=O)C[C@H]2c2ccc(Cl)cc2)cc1` (racemic) [Example 136, 4-(2-methoxyethoxy)phenyl]methyl (4S)-4-(4-chlorophenyl)-6-methyl-2-oxo-1-[[(2R)-tetrahydrofuran-2-yl]methyl]-3,4-dihydropyridine-5-carboxylate and 4-(2-methoxyethoxy)phenyl]methyl (4R)-4-(4-chlorophenyl)-6-methyl-2-oxo-1-[[(2S)-tetrahydrofuran-2-yl]methyl]-3,4-dihydropyridine-5-carboxylate], at mTGR5, the EC50 worked out at 40 nM and the mTGR5 % trans worked out at 111%. Besides, at hTGR5, the midpoint of the response, the EC50, lay at 20 nM and the hTGR5 % trans was 93%.
In the same order, the values of `CC1=C(C(=O)OC2CCc3ccccc32)[C@H](c2ccc(Cl)cc2)CC(=O)N1C[C@H]1CCCO1` (mixture of isomers) [Example 137, Indan-1-yl (4S)-4-(4-chlorophenyl)-6-methyl-2-oxo-1-[[(2R)-tetrahydrofuran-2-yl]methyl]-3,4-dihydropyridine-5-carboxylate] are 930 nM, 40%, 380 nM and 70%.
Taken in the same sequence, the figures for `CC1=C(C(=O)OCc2ccccn2)[C@H](c2ccc(Cl)cc2)CC(=O)N1C[C@H]1CCCO1` (racemic) [Example 145, 2-pyridylmethyl (4S)-4-(4-chlorophenyl)-6-methyl-2-oxo-1-[[(2R)-tetrahydrofuran-2-yl]methyl]-3,4-dihydropyridine-5-carboxylate and 2-pyridylmethyl (4R)-4-(4-chlorophenyl)-6-methyl-2-oxo-1-[[(2S)-tetrahydrofuran-2-yl]methyl]-3,4-dihydropyridine-5-carboxylate] were 2500 nM, 74%, 1000 nM and 72%.
On mTGR5, `CC1=C(C(=O)OCc2cccnc2)[C@H](c2ccc(Cl)cc2)CC(=O)N1C[C@H]1CCCO1` (racemic) [Example 146, 3-pyridylmethyl (4S)-4-(4-chlorophenyl)-6-methyl-2-oxo-1-[[(2R)-tetrahydrofuran-2-yl]methyl]-3,4-dihydropyridine-5-carboxylate and 3-pyridylmethyl (4R)-4-(4-chlorophenyl)-6-methyl-2-oxo-1-[[(2S)-tetrahydrofuran-2-yl]methyl]-3,4-dihydropyridine-5-carboxy late] showed an EC50 of 450 nM and a mTGR5 % trans of 77%. At hTGR5, this compound registered an EC50 of 350 nM and a hTGR5 % trans of 78%.
In the same order, the values of `COCCOc1ccc(COC(=O)C2=C(C)N(C[C@@H]3CCCO3)C(=O)C[C@H]2c2ccc(Cl)cc2)cc1` (racemic) [Example 147, [4-(2-methoxyethoxy)phenyl]methyl (4S)-4-(4-chlorophenyl)-6-methyl-2-oxo-1-[[(2S)-tetrahydrofuran-2-yl]methyl]-3,4-dihydropyridine-5-carboxylate and [4-(2-methoxyethoxy)phenyl]methyl (4R)-4-(4-chlorophenyl)-6-methyl-2-oxo-1-[[(2R)-tetrahydrofuran-2-yl]methyl]-3,4-dihydropyridine-5-carboxylate] are 450 nM, 112%, 190 nM and 77%.
On mTGR5, `COc1ccccc1COC(=O)C1=C(C)N(C[C@H]2CCCO2)C(=O)C[C@H]1c1ccc(Cl)c(Cl)c1` (racemic) [Example 149, (2-methoxyphenyl)methyl (4S)-4-(3,4-dichlorophenyl)-6-methyl-2-oxo-1-[[(2R)-tetrahydrofuran-2-yl]methyl]-3,4-dihydropyridine-5-carboxylate and (2-methoxyphenyl)methyl (4R)-4-(3,4-dichlorophenyl)-6-methyl-2-oxo-1-[[(2S)-tetrahydrofuran-2-yl]methyl]-3,4-dihydropyridine-5-carboxylate] displayed a concentration giving a half-maximal response (EC50) of 70 nM and a mTGR5 % trans of 89%. On hTGR5, this compound gave a concentration for a half-maximal effect (EC50) of 20 nM and a hTGR5 % trans of 91%.
For `COc1ccccc1COC(=O)C1=C(C)N(C[C@H]2CCCO2)C(=O)C[C@H]1c1ccc(C(F)(F)F)nc1` (racemic) [Example 150, (2-Methoxyphenyl)methyl (4S)-6-methyl-2-oxo-1-[[(2R)-tetrahydrofuran-2-yl]methyl]-4-[6-(trifluoromethyl)-3-pyridyl]-3,4-dihydropyridine-5-carboxylate and (2-methoxyphenyl)methyl (4R)-6-methyl-2-oxo-1-[[(2S)-tetrahydrofuran-2-yl]methyl]-4-[6-(trifluoromethyl)-3-pyridyl]-3,4-dihydropyridine-5-carboxylate], on mTGR5, a half-maximal response (EC50) required 100 nM and the mTGR5 % trans amounted to 99%. In addition, on hTGR5, the EC50 worked out at 25 nM and the hTGR5 % trans is listed as 110%.
Consider `COc1ccccc1COC(=O)C1=C(C)N(C[C@H]2CCCO2)C(=O)C[C@H]1c1cccnc1Cl` (racemic) [Example 151, (2-Methoxyphenyl)methyl (4R)-4-(2-chloro-3-pyridyl)-6-methyl-2-oxo-1-[[(2R)-tetrahydrofuran-2-yl]methyl]-3,4-dihydropyridine-5-carboxylate and (2-methoxyphenyl)methyl (4S)-4-(2-chloro-3-pyridyl)-6-methyl-2-oxo-1-[[(2S)-tetrahydrofuran-2-yl]methyl]-3,4-dihydropyridine-5-carboxylate], for which, on mTGR5, a half-maximal effect (EC50) was put at 12500 nM and the mTGR5 % trans stood at 44%. On hTGR5, the response was half-maximal at 2200 nM (EC50) and the hTGR5 % trans stood at 87%.
Take `COc1ccccc1COC(=O)C1=C(C)N(C[C@H]2CCCO2)C(=O)C[C@H]1c1ccc2nsnc2c1` (racemic) [Example 152, (2-Methoxyphenyl)methyl (4S)-4-(2,1,3-benzothiadiazol-5-yl)-6-methyl-2-oxo-1-[[(2R)-tetrahydrofuran-2-yl]methyl]-3,4-dihydropyridine-5-carboxylate and (2-methoxyphenyl)methyl (4R)-4-(2,1,3-benzothiadiazol-5-yl)-6-methyl-2-oxo-1-[[(2S)-tetrahydrofuran-2-yl]methyl]-3,4-dihydropyridine-5-carboxylate]: on mTGR5, it took 48 nM to reach a half-maximal effect (EC50) and the mTGR5 % trans was 66%. Further, on hTGR5, the EC50 is 30 nM and the hTGR5 % trans was found to be 106%.
As for `CC1=C(C(=O)OCc2ccc(OCCS(=O)(=O)O)cc2)[C@@H](c2ccc(Cl)nc2)CC(=O)N1C[C@@H]1CCCO1.N` (racemic) [Example 153, Ammonium,2-[4-[[(4S)-4-(6-chloro-3-pyridyl)-6-methyl-2-oxo-1-[[(2R)-tetrahydrofuran-2-yl]methyl]-3,4-dihydropyridine-5-carbonyl]oxymethyl]phenoxy]ethanesulfonate and ammonium,2-[4-[[(4R)-4-(6-chloro-3-pyridyl)-6-methyl-2-oxo-1-[[(2S)-tetrahydrofuran-2-yl]methyl]-3,4-dihydropyridine-5-carbonyl]oxymethyl]phenoxy]ethanesulfonate], at mTGR5, the EC50 came to 130 nM and the mTGR5 % trans was found to be 102%. On hTGR5, this compound came in with an EC50 of 130 nM and a hTGR5 % trans of 101%.
`COCCN1C(=O)CC(c2ccc(Cl)cc2)C(C(=O)OCc2ccc(C(F)(F)F)cc2)=C1C` (centres unmarked) [Example 92, [4-(trifluoromethyl)phenyl]methyl 4-(4-chlorophenyl)-1-(2-methoxyethyl)-6-methyl-2-oxo-3,4-dihydropyridine-5-carboxylate]: the midpoint of the response on mTGR5, the EC50, lay at 300 nM.
`COCCN1C(=O)CC(c2ccc(Cl)cc2)C(C(=O)OCc2cccc(C)c2)=C1C` (centres unmarked) [Example 99, m-tolylmethyl 4-(4-chlorophenyl)-1-(2-methoxyethyl)-6-methyl-2-oxo-3,4-dihydropyridine-5-carboxylate]: the EC50 on mTGR5 is 300 nM.
On mTGR5, `COCCN1C(=O)CC(c2ccc(Cl)cc2)C(C(=O)OCc2ccccc2OC(F)(F)F)=C1C` (centres unmarked) [Example 105, (2-trifluoromethoxyphenyl)methyl 4-(4-chlorophenyl)-1-(2-methoxyethyl)-6-methyl-2-oxo-3,4-dihydropyridine-5-carboxylate] returned an EC50 of 800 nM and a mTGR5 % trans of 63%.
